Data set [1] concerns Human immunodeficiency virus 1. The data set can be described thus: Reversal of HIV-1 latency in CD4+ T-lymphoid J-Lat cells contains HIV-1 long terminal repeats (LTR)-Tat-GFP assessed as reactivation measured after 48 hrs by flow cytometry. Format: functional, organism-based. As to conditions: Human immunodeficiency virus 1, J-Lat 10.6, 48 h. Background: In flow cytometry, cells or beads pass a laser one at a time.

The nature of data set [2]: Cytotoxicity against human non-infected J-Lat A10.6 cells assessed as cell death by CCK8 assay. The format is toxicity, cell-based, J-Lat 10.6. (Formazan colour is commonly taken as a measure of viable cells.)
Data set [3] addresses Bromodomain-containing protein 4 (Homo sapiens) (UniProt O60885). In words: Inhibition of BRD4 in human J-Lat 10.6 cells contains HIV-1 long terminal repeats (LTR)-Tat-GFP assessed as increased CDK9 enrichment in LTR at 1 uM incubated for 6 hrs by ChiP assay. The format is cell-based.
The target is the same in data set [4]. In words: Inhibition of BRD4 in human J-Lat 10.6 cells contains HIV-1 long terminal repeats (LTR)-Tat-GFP assessed as increased RNA pol II enrichment in LTR at 1 uM incubated for 6 hrs by ChiP assay. Format: cell-based.
Data set [5] shares this target. In words: Inhibition of BRD4 BD1 domain (unknown origin) at 1 uM by HTRF assay. Background: In TR-FRET formats the signal depends on donor and acceptor labels being close together.
Data set [6] relates to PBMC. In words: Immune hyper-activation in human PBMC cells assessed as CD69 expression at 1 uM measured after 48 hrs by flow cytometry. Format: toxicity, cell-based.
Data set [7] deals with PBMC. In words: Immune hyper-activation in human PBMC cells assessed as HLA-DR expression at 1 uM measured after 48 hrs by flow cytometry. The format is toxicity, cell-based.
In data set [8] the target is Bromodomain-containing protein 4 (Homo sapiens) (UniProt O60885). The data set can be described thus: Inhibition of BRD4 phosphorylation in human J-Lat A10.6 cells contains HIV-1 long terminal repeats (LTR)-Tat-GFP at 1 uM measured after 24 hrs by Western blotting analysis. Format: cell-based. Conditions: J-Lat 10.6.
Data set [9] has as its system PBMC. The data set can be described thus: Immune hyper-activation in human PBMC cells assessed as CD25 expression at 1 uM measured after 48 hrs by flow cytometry. Format: toxicity, cell-based.
For data set [10], the system named is Human immunodeficiency virus 1. The data set can be described thus: Reversal of HIV-1 latency in ACH-2 cell line contains complete HIV-1 provirus assessed as reactivation by measuring HIV-1 p24 antigen expression 5 uM measured after 48 hrs by ELISA. The format is functional, organism-based.
Data set [11] addresses Bromodomain-containing protein 4 (Homo sapiens) (UniProt O60885). The data set can be described thus: Inhibition of BRD4 BD2 domain (unknown origin) at 1 uM by HTRF assay.
Data set [12] relates to Human immunodeficiency virus 1. The data set can be described thus: Anti-HIV activity against HIV-1IIIB acute infected in human C8166 cells assessed as inhibition of p24 expression at 25 nM incubated for 72 hrs by ELISA assay in presence of N-(4-(2,4-difluorophenoxy)-3-(3-methyl-[1,2,4]triazolo[4,3-a]pyridin-6-yl)phenyl)-4-fluorobenzenesulfonamide. Format: functional, organism-based.

Data set [13] concerns Human immunodeficiency virus 1. The data set can be described thus: Anti-HIV activity against HIV-1IIIB acute infected in human C8166 cells assessed as inhibition of p24 expression at 50 nM incubated for 72 hrs by ELISA assay in presence of N-(4-(2,4-difluorophenoxy)-3-(3-methyl-[1,2,4]triazolo[4,3-a]pyridin-6-yl)phenyl)-4-fluorobenzenesulfonamide. Format: functional, organism-based.

For another data set, the system named is C8166. The data set can be described thus: Anti-HIV activity against HIV-1IIIB acute infected in human C8166 cells assessed as inhibition of p24 expression at 1 nM incubated for 72 hrs by ELISA assay in presence of N-(4-(2,4-difluorophenoxy)-3-(3-methyl-[1,2,4]triazolo[4,3-a]pyridin-6-yl)phenyl)-4-fluorobenzenesulfonamide. The format is functional, cell-based.

Molecules are shown by their SMILES. Activity calls are given as the source filed them. The calls are words filed in the database; no cut-off is given here.

As for `COc1ccc(Br)cc1S(=O)(=O)Nc1ccc(Oc2ccc(F)cc2F)c(-c2ccc3nnc(C)n3c2)c1`, in [1], the concentration for a half-maximal effect (EC50) (commonly the concentration needed to bring the measured effect to its halfway point) was over 50 µM. Moreover, the CC50 (commonly the concentration that lowers cell viability or growth by half) in [2] is over 50 µM.

With `Cc1nnc2ccc(-c3cc(NC(=O)C4CC4)ccc3Oc3ccc(F)cc3F)cn12`, the concentration giving a half-maximal response (EC50) in data set [1] is over 50 µM. In addition, the half-maximal cytotoxic concentration (CC50) in [2] is over 50 µM.

`COC(=O)CCCCCCC(=O)Nc1ccc(Oc2ccc(Cl)cc2F)c(-c2ccc3nnc(C)n3c2)c1`: the EC50 in data set [1] is over 50 µM. Further, the cytotoxic concentration (CC50) in [2] is over 50 µM.

In the case of `Cc1nnc2ccc(-c3cc(NS(=O)(=O)c4ccc(C(F)(F)F)cc4)ccc3Oc3ccc(F)cc3F)cn12`, in data set [1], the 50% effective concentration (EC50) is over 50 µM. For the same compound, the CC50 in [2] is over 50 µM.

For `Cc1csc2c1C(c1ccc(Cl)cc1)=N[C@@H](CC(=O)OC(C)(C)C)c1nncn1-2` (racemic), the inhibition entry in data set [3], in data set [4], in data set [5], in data set [8] and in data set [11] was “Active” throughout. In addition, the Activity entry in the data set on PBMC [6], with PBMC [7] and with PBMC [9] was “Non-Toxic” each time. Also, in data set [10], the outcome was Active.

As to `Cc1nnc2ccc(-c3cc(NC(=O)CCCCCCC(=O)NO)ccc3Oc3ccc(F)cc3F)cn12`, the half-maximal effective concentration (EC50) in [1] was over 50 µM. Also, in [2], the half-maximal cytotoxic concentration (CC50) is over 50 µM.

For the compound `CCS(=O)(=O)Nc1ccc(Oc2ccc(F)cc2F)c(-c2cn(C)c(=O)c3[nH]ccc23)c1`, the inhibition result in data set [5] and in data set [11] was “Active” throughout. Besides, in [10], the result was Active.

For the compound `Cc1nnc2ccc(-c3cc(NS(=O)(=O)c4cccc(Br)c4)ccc3Oc3ccc(F)cc3F)cn12`, the inhibition entry in data set [5] and in data set [11] was “Active” each time. Moreover, the half-maximal effective concentration (EC50) in data set [1] worked out at 17.2 µM. Moreover, the CC50 in [2] is over 50 µM.

For `CC(C)CN(C[C@@H](O)[C@H](Cc1ccccc1)NC(=O)O[C@H]1CO[C@H]2OCC[C@H]21)S(=O)(=O)c1ccc(N)cc1`, the result in [12] was Active.

As for `Cc1nnc2ccc(-c3cc(NC(=O)C(C)(C)C)ccc3Oc3ccc(Cl)cc3F)cn12`, in data set [1], the 50% effective concentration (EC50) is over 50 µM. Also, the CC50 in data set [2] came out at 32.9 µM.

As to `Cc1nnc2ccc(-c3cc(NS(=O)(=O)c4ccc(Br)cc4)ccc3Oc3ccc(F)cc3F)cn12`, in data set [1], the EC50 was over 50 µM. In addition, the cytotoxic concentration (CC50) in [2] worked out at 43.9 µM.

On to `Cc1nnc2ccc(-c3cc(NS(=O)(=O)c4cccs4)ccc3Oc3ccc(F)cc3F)cn12`, for which the inhibition result in data set [5] and in data set [11] was “Active” each time. The EC50 in data set [1] turned out to be 6.6 µM. Also, the cytotoxic concentration (CC50) in data set [2] was over 50 µM. Also, in [10], the result was Active.

For `Cc1nnc(C(=O)NC(C)(C)c2nc(C(=O)NCc3ccc(F)cc3)c(O)c(=O)n2C)o1`, the outcome in data set [13] was Active.

On to `COc1ccc(S(=O)(=O)Nc2ccc(Oc3ccc(F)cc3F)c(-c3ccc4nnc(C)n4c3)c2)cc1`, for which the inhibition entry in data set [5] and in data set [11] was “Active” each time. The EC50 in data set [1] was determined as 6.8 µM. Further, the cytotoxic concentration (CC50) in [2] was over 50 µM.

On to `CCS(=O)(=O)Nc1ccc(Oc2ccc(Cl)cc2Cl)c(-c2ccc3nnc(C)n3c2)c1`, for which, in data set [10], the outcome was Active.

`CCC(=O)Nc1ccc(Oc2ccc(F)cc2F)c(-c2ccc3nnc(C)n3c2)c1`: in data set [1], the concentration giving a half-maximal response (EC50) came to 17.8 µM. In addition, the CC50 in data set [2] is over 50 µM.

On to `Cn1cc(-c2cc(NS(=O)(=O)c3ccc(F)cc3)ccc2Oc2ccc(Cl)cc2F)c2cc[nH]c2c1=O`, for which the inhibition result in data set [5] and in data set [11] was “Active” each time.

Consider `CCCS(=O)(=O)Nc1ccc(Oc2ccc(F)cc2F)c(-c2ccc3nnc(C)n3c2)c1`, for which the inhibition entry in data set [5] and in data set [11] was “Active” throughout. In addition, in [1], the EC50 turned out to be 5.4 µM. In data set [2], the CC50 stood at 44.7 µM.

Regarding `O=C1Nc2ccc(Cl)cc2[C@@](C#CC2CC2)(C(F)(F)F)O1`, the result with C8166 was Active.

As for `C=CS(=O)(=O)Nc1ccc(Oc2ccc(Cl)cc2F)c(-c2ccc3nnc(C)n3c2)c1`, the inhibition entry in [5] and in data set [11] was “Active” throughout. In data set [1], the concentration giving a half-maximal response (EC50) is 2 µM. In addition, the CC50 in data set [2] came out at 44.2 µM.

Turning to `Cc1ccc(S(=O)(=O)Nc2ccc(Oc3ccc(F)cc3F)c(-c3ccc4nnc(C)n4c3)c2)cc1`, the EC50 in data set [1] was over 50 µM. Also, the 50% cytotoxic concentration (CC50) in [2] was over 50 µM.

On to `CCS(=O)(=O)Nc1ccc(Oc2ccc(Cl)cc2F)c(-c2ccc3nnc(C)n3c2)c1`, for which the inhibition entry in [5] and in data set [11] was “Active” each time. Moreover, the EC50 in data set [1] came out at 5.6 µM. The CC50 in data set [2] amounted to 12.3 µM. The outcome in data set [10] was Active.

As for `Cc1nnc2ccc(-c3cc(NC(=O)CCCCCCC(=O)NO)ccc3Oc3ccc(Cl)cc3F)cn12`, in data set [1], the EC50 was 13.4 µM. The half-maximal cytotoxic concentration (CC50) in data set [2] is 28.7 µM.

As to `Cc1nnc2ccc(-c3cc(NS(=O)(=O)c4ccccc4)ccc3Oc3ccc(F)cc3F)cn12`, the inhibition entry in data set [5] and in [11] was “Active” throughout. Moreover, the concentration giving a half-maximal response (EC50) in data set [1] was over 50 µM. Further, the CC50 in data set [2] is over 50 µM.

Take `Cc1nnc2ccc(-c3cc(NS(=O)(=O)c4ccc(Cl)cc4)ccc3Oc3ccc(F)cc3F)cn12`: the inhibition result in data set [5] and in data set [11] was “Active” each time. Moreover, the 50% effective concentration (EC50) in data set [1] was determined as 17.7 µM. In addition, the cytotoxic concentration (CC50) in data set [2] was over 50 µM.

With `Cc1nnc2ccc(-c3cc(NS(=O)(=O)c4cccs4)ccc3Oc3ccc(Cl)cc3F)cn12`, the inhibition result in [5] and in data set [11] was “Active” in each case. Also, the result in data set [10] was Active.

As for `COC(=O)CCCCCCC(=O)Nc1ccc(Oc2ccc(F)cc2F)c(-c2ccc3nnc(C)n3c2)c1`, in data set [1], the half-maximal effective concentration (EC50) is over 50 µM. Further, the half-maximal cytotoxic concentration (CC50) in [2] is over 50 µM.

For `Cc1nnc2ccc(-c3cc(NS(=O)(=O)c4ccc([N+](=O)[O-])cc4)ccc3Oc3ccc(F)cc3F)cn12`, the 50% effective concentration (EC50) in data set [1] was over 50 µM. Also, the half-maximal cytotoxic concentration (CC50) in [2] was over 50 µM.

Take `Cc1nnc2ccc(-c3cc(NS(=O)(=O)C4CC4)ccc3Oc3ccc(F)cc3F)cn12`: the inhibition entry in [5] and in data set [11] was “Active” each time. The concentration giving a half-maximal response (EC50) in [1] was determined as 4.3 µM. The CC50 in data set [2] is over 50 µM. Further, in data set [10], the outcome was Active.

(Values after ChEMBL document CHEMBL5357021, “Novel Triazolopyridine-Based BRD4 Inhibitors as Potent HIV-1 Latency Reversing Agents” (ACS Med Chem Lett, 2024).)
